Assay results as given in patent publication US4912036A, “Rapid differentiation of bacteria using cyclic polypeptide antibiotics” (Eastman Kodak Company, priority 1986, dated 1990).

Columns and labels:
S. aureus [1] = experiment: Inhibition of RIND IX reduction by various cyclic polypeptide antibiotics; format: cell-based, Staphylococcus aureus; details: 635 nm
Protocol: The following materials were used in this example: stock solutions of RIND IX compound dispersion prepared as described above, glucose (10% in water), trimethyl-1,4-benzoquinone ETA (1.5 mg/ml methanol), and the antibiotics (1 mg/ml in dimethylsulfoxide). S. aureus cells were grown as described above. The final cell concentration in the assay mixture was about 4.3×10^8 cells/ml.
Test solutions were prepared by adding in the order: 1.2 ml of HEPES buffer, 50 μl glucose solution, 1.5 ml of RIND IX dispersion, 100 μl of antibiotic solution, 100 μl of cell suspension and 25 μl of ETA solution. Control solutions were prepared as described in Examples 2 and 3. Optical density readings (OD) were measured at 635 nm at 0 minutes and after incubation at 37° C. for 30 minutes for test and control solutions, and the change in density (ΔOD) was determined. Table VI below lists the results, expressed as corrected percent inhibition of the reduction of the RIND compound. The corrected percent inhibition is calculated by dividing the difference between the ΔOD obtained from the Cell Control without antibiotic and the ΔOD of the test solution, by ΔOD of the Cell Control without antibiotic. All readings were corrected by subtracting readings of the appropriate background Controls.
Solutions containing 2.9 ml HEPES, 50 μl of the antibiotic solution and 100 μl cell solution were incubated at 37° C. for 30 minutes, centrifuged for 10 minutes and decanted. The resulting pellet was then treated with 1.4 ml HEPES, 50 μl glucose solution, 1.5 ml RIND IX dispersion and 25 μl ETA solution, mixed well and the densities recorded as described above in Method 1. The corrected percent inhibition data was calculated as described in Method 1 above.

E. coli [2] = experiment: MTT reduction solution assay, ΔOD 540 nm; format: cell-based, Escherichia coli; details: E. coli (-) 5×10^7, tyrocidin 0.825 mg/ml, 37° C.
Protocol: (§1) These examples illustrate the differentiation of bacteria using a tetrazolium salt and phenolic dye as the reducible compounds and two cyclic polypeptide antibiotics according to the present invention. The tetrazolium salt was 3-(4,5-dimethyl-2-thiazolyl) -2,5-diphenyl-2H-tetrazolium bromide (MTT) which forms a colored formazan dye when reduced. The phenolic dye was 2,6-dichloroindophenol (DCIP) which forms a colorless species when reduced.
(§2) Solutions of the reducible compounds were prepared with the following: HEPES buffer (3 ml, 0.05 molar, pH 7.5), TRITON X-100 nonionic surfactant (1% concentration), glucose (50 μl of 10% in water), tryptose (50 μl of a 10% solution in water), MTT (25 μl of 5 mg/ml methanol) or DCIP (25 μl of 3 mg/ml methanol) and phenazine methosultate ETA (25 μl of 3 mg/ml methanol).
(§3) Test solutions were prepared from the following: reducible compound solution from above (200 μl), 50 μl of either gramicidin S solution (6 mg/ml methanol and 9 ml of buffer) or tyrocidin solution (100 mg/ml methanol and 8 ml of buffer) and 50 μl of cell suspension. […] The change in optical density (ΔOD) was determined after 30 minutes at 37° C. at 540 nm for the MTT assay and at 620 nm for the DCIP assay using a commercially available spectrophotometer.

S. faecalis [3] = experiment: DCIP reduction solution assay, ΔOD 620 nm; format: cell-based, Streptococcus faecalis; details: S. faecalis (+) 5×10^7, tyrocidin 0.825 mg/ml, 37° C.
Protocol: as §1, §2, §3

E. coli [4] = experiment: DCIP reduction solution assay, ΔOD 620 nm; format: cell-based, Escherichia coli; details: E. coli (-) 5×10^7, tyrocidin 0.825 mg/ml, 37° C.
Protocol: as §1, §2, §3

S. aureus [5] = experiment: RIND XXIX reduction solution assay, Δ fluorescence; format: cell-based, Staphylococcus aureus; details: S. aureus (gram +) about 5×10^7 cells/ml, tyrocidin 3.3 mg/ml, 37° C.
Protocol: (§4) Bacterial suspensions were prepared by growing the cells in BHT broth to stationary phase overnight at 37° C. P. auruginosa was grown with agitation. About 40 ml of each overnight culture was centrifuged, decanted and washed once with 0.05 molar potassium phosphate buffer or 0.05 molar N-2-hydroxy-ethylpiperazine-N'-2-ethanesulfonic acid (HEPES) buffer, pH 7.8, and resuspended in buffer.
(§5) Dispersions containing RIND compounds were prepared by dissolving the RIND compound in N,N-dimethylformamide (DMF) at 16 mg compound per ml of solvent. An aliquot (250 μl) of the resulting solution was added to 500 μl of TRITON X-100 surfactant. This mixture was then added dropwise with stirring to 25 ml of 0.05 molar HEPES buffer. A dispersion of RIND XXIX was prepared similarly except that DMF was acidified with 0.1% sulfuric acid. […]
(§6) The solutions were incubated at 37° C. for 30 minutes, and the change in fluorescence emission (Δ fluorescence) was determined as the difference between the readings taken when the solutions were first mixed and then after 30 minutes incubation. Measurements were made in a commercially available MICROFLUOR Reader (available from Dynatech Laboratories, Alexandria, Virginia, U.S.A.), modified with an excitation filter at 540 nm, an emission filter at 620 nm and a Xenon lamp.

K. pneumoniae [6] = experiment: RIND XXIX reduction solution assay, Δ fluorescence; format: cell-based, Klebsiella pneumoniae; details: K. pneumoniae (gram -) about 5×10^7 cells/ml, tyrocidin 3.3 mg/ml, 37° C.
Protocol: as §4
(§7) Dispersions containing RIND compounds were prepared by dissolving the RIND compound in N,N-dimethylformamide (DMF) at 16 mg compound per ml of solvent. An aliquot (250 μl) of the resulting solution was added to 500 μl of TRITON X-100 surfactant. This mixture was then added dropwise with stirring to 25 ml of 0.05 molar HEPES buffer. A dispersion of RIND XXIX was prepared similarly except that DMF was acidified with 0.1% sulfuric acid. Compositions containing water-compatible RIND compounds were prepared as described above except the surfactant was omitted.
(§8) Each test solution contained the following: dispersion of RIND XXIX (25 μl) prepared as described above, glucose (400 μl of 10% aqueous solution), tryptose (400 μl of 10% aqueous solution), trimethyl-1,4-benzoquinone ETA (500 μl of 1.5 mg/ml methanol). Aliquots (200 μl) of the mixture were mixed with solutions of the antibiotics (50 μl). The cell suspensions (50 μl) were then added. The final concentration of gramcidin S and tyrocidin were 0.1 mg/ml and 3.3 mg/ml, respectively. The final cell concentration was about 5×10^7 cells/ml. Cell control solutions contained all reagents except antibiotics. Background controls consisted of both buffer and solution controls. […]
as §6, with “lamp. […]” for “lamp.”

S. faecalis [7] = experiment: MTT reduction solution assay, ΔOD 540 nm; format: cell-based, Streptococcus faecalis; details: S. faecalis (+) 5×10^7, tyrocidin 0.825 mg/ml, 37° C.
Protocol: as §1, §2, §3

[8] = test system: viable gram-positive and gram-negative bacteria; experiment: Differentiation in RIND XXIX solution assays, overall result; format: cell-based; details: gramicidin S 0.1 mg/ml, tyrocidin 3.3 mg/ml
Protocol: Each test solution contained the following: dispersion of RIND XXIX (25 μl) prepared as described above, glucose (400 μl of 10% aqueous solution), tryptose (400 μl of 10% aqueous solution), trimethyl-1,4-benzoquinone ETA (500 μl of 1.5 mg/ml methanol). Aliquots (200 μl) of the mixture were mixed with solutions of the antibiotics (50 μl). The cell suspensions (50 μl) were then added. The final concentration of gramcidin S and tyrocidin were 0.1 mg/ml and 3.3 mg/ml, respectively. The final cell concentration was about 5×10^7 cells/ml. Cell control solutions contained all reagents except antibiotics. Background controls consisted of both buffer and solution controls. The buffer control contained all reagents except antibiotics and cells. The solution control contained all reagents except cells.
as §6
This example illustrates the practice of this invention to identify a Proteus species in solution. Test solutions and cell control solutions were prepared and tested as described in Example 2 and 3 except that polymixin B was used at 0.01 mg/ml of methanol. The final cell concentration was about 5×10^7 cells/ml.

E. cloacae [9] = experiment: RIND XXIX reduction solution assay, Δ fluorescence; format: cell-based, Enterobacter cloacae; details: E. cloacae (gram -) about 5×10^7 cells/ml, tyrocidin 3.3 mg/ml, 37° C.
Protocol: as §4, §7, §8
as §6, with “lamp. […]” for “lamp.”

P. aeruginosa [10] = experiment: DCIP reduction solution assay, ΔOD 620 nm; format: cell-based, Pseudomonas aeruginosa; details: P. aeruginosa (-) 5×10^7, tyrocidin 0.825 mg/ml, 37° C.
Protocol: as §1, §2, §3

S. faecalis [11] = experiment: RIND XXIX reduction solution assay, Δ fluorescence; format: cell-based, Streptococcus faecalis; details: S. faecalis (gram +) about 5×10^7 cells/ml, tyrocidin 3.3 mg/ml, 37° C.
Protocol: as §4, §5, §6

S. aureus [12] = experiment: DCIP reduction solution assay, ΔOD 620 nm; format: cell-based, Staphylococcus aureus; details: S. aureus (+) 5×10^7, tyrocidin 0.825 mg/ml, 37° C.
Protocol: as §1, §2, §3

K. pneumoniae [13] = experiment: DCIP reduction solution assay, ΔOD 620 nm; format: cell-based, Klebsiella pneumoniae; details: K. pneumoniae (-) 5×10^7, tyrocidin 0.825 mg/ml, 37° C.
Protocol: as §1, §2, §3

E. cloacae [14] = experiment: DCIP reduction solution assay, ΔOD 620 nm; format: cell-based, Enterobacter cloacae; details: E. cloacae (-) 5×10^7, tyrocidin 0.825 mg/ml, 37° C.
Protocol: as §1, §2, §3

E. cloacae [15] = experiment: MTT reduction solution assay, ΔOD 540 nm; format: cell-based, Enterobacter cloacae; details: E. cloacae (-) 5×10^7, tyrocidin 0.825 mg/ml, 37° C.
Protocol: as §1, §2, §3

P. vulgaris [16] = experiment: MTT reduction solution assay, ΔOD 540 nm; format: cell-based, Proteus vulgaris; details: P. vulgaris (-) 5×10^7, tyrocidin 0.825 mg/ml, 37° C.
Protocol: as §1, §2, §3

S. aureus [17] = experiment: MTT reduction solution assay, ΔOD 540 nm; format: cell-based, Staphylococcus aureus; details: S. aureus (+) 5×10^7, tyrocidin 0.825 mg/ml, 37° C.
Protocol: as §1, §2, §3

E. coli [18] = experiment: RIND XXIX reduction solution assay, Δ fluorescence; format: cell-based, Escherichia coli; details: E. coli (gram -) about 5×10^7 cells/ml, tyrocidin 3.3 mg/ml, 37° C.
Protocol: as §4, §7, §8
as §6, with “lamp. […]” for “lamp.”

P. aeruginosa [19] = experiment: RIND XXIX reduction solution assay, Δ fluorescence; format: cell-based, Pseudomonas aeruginosa; details: P. aeruginosa (gram -) about 5×10^7 cells/ml, tyrocidin 3.3 mg/ml, 37° C.
Protocol: as §4, §7, §8
as §6, with “lamp. […]” for “lamp.”

P. vulgaris [20] = experiment: DCIP reduction solution assay, ΔOD 620 nm; format: cell-based, Proteus vulgaris; details: P. vulgaris (-) 5×10^7, tyrocidin 0.825 mg/ml, 37° C.
Protocol: as §1, §2, §3

K. pneumoniae [21] = experiment: MTT reduction solution assay, ΔOD 540 nm; format: cell-based, Klebsiella pneumoniae; details: K. pneumoniae (-) 5×10^7, tyrocidin 0.825 mg/ml, 37° C.
Protocol: as §1, §2, §3

P. aeruginosa [22] = experiment: MTT reduction solution assay, ΔOD 540 nm; format: cell-based, Pseudomonas aeruginosa; details: P. aeruginosa (-) 5×10^7, tyrocidin 0.825 mg/ml, 37° C.
Protocol: as §1, §2, §3

P. vulgaris [23] = experiment: RIND XXIX reduction solution assay, Δ fluorescence; format: cell-based, Proteus vulgaris; details: P. vulgaris (gram -) about 5×10^7 cells/ml, tyrocidin 3.3 mg/ml, 37° C.
Protocol: as §4, §7, §8
as §6, with “lamp. […]” for “lamp.”

virginiamycin
Corrected % Inhibition (S. aureus [1]; Test Method 2 (cells preincubated with 50 μl antibiotic solution 30 minutes, centrifuged, pellet assayed), S. aureus): No Inhibition

ristocetin
Corrected % Inhibition (S. aureus [1]; Test Method 1 (antibiotic in the test solution), S. aureus about 4.3×10^8 cells/ml, 100 μl of 1 mg/ml antibiotic solution, 30 minutes at 37° C.): No Inhibition

tyrocidin
ΔOD, 540 nm after 30 Minutes (E. coli [2]): 1.207 | ΔOD, 620 nm after 30 Minutes (S. faecalis [3]): 0.048 | ΔOD, 620 nm after 30 Minutes (E. coli [4]): 1.054 | Δ Fluorescence (30 Minutes) (S. aureus [5]): 1834 | Δ Fluorescence (30 Minutes) (K. pneumoniae [6]): > 4000 | ΔOD, 540 nm after 30 Minutes (S. faecalis [7]): 0.048 | differentiation between viable gram-positive and gram-negative bacteria, in words [8]: can be used with RIND XXIX to differentiate between viable gram-positive and gram-negative bacteria | Δ Fluorescence (30 Minutes) (E. cloacae [9]): > 4000 | ΔOD, 620 nm after 30 Minutes (P. aeruginosa [10]): 0.983 | Δ Fluorescence (30 Minutes) (S. faecalis [11]): 0880 | ΔOD, 620 nm after 30 Minutes (S. aureus [12]): 0.074 | ΔOD, 620 nm after 30 Minutes (K. pneumoniae [13]): 0.819 | ΔOD, 620 nm after 30 Minutes (E. cloacae [14]): 0.999 | ΔOD, 540 nm after 30 Minutes (E. cloacae [15]): 0.748 | ΔOD, 540 nm after 30 Minutes (P. vulgaris [16]): 0.778 | ΔOD, 540 nm after 30 Minutes (S. aureus [17]): 0.113 | Δ Fluorescence (30 Minutes) (E. coli [18]): > 4000 | Δ Fluorescence (30 Minutes) (P. aeruginosa [19]): > 4000 | ΔOD, 620 nm after 30 Minutes (P. vulgaris [20]): 0.941 | ΔOD, 540 nm after 30 Minutes (K. pneumoniae [21]): 0.842 | ΔOD, 540 nm after 30 Minutes (P. aeruginosa [22]): 0.692 | Δ Fluorescence (30 Minutes) (P. vulgaris [23]): > 4000
